Laboratory results: ChEMBL document CHEMBL5726559, “Aryl, heteroaryl, and heterocyclic compounds for treatment of complement mediated disorders” (2017)

Target: Complement factor D (Homo sapiens, UniProt P00746)
Test: Factor D Assay: Human factor D (purified from human serum, Complement Technology, Inc.) at 80 nM final concentration is incubated with test compound at various concentrations for 5 minutes at room temperature in 50 mM Tris, 1M NaCl, pH 7.5. A synthetic substrate Z-L-Lys-SBzl and DTNB (Ellman's reagent) are added to final concentrations of 100 μM each. The increase in color is recorded at OD405 nm in a microplate in kinetic mode over 30 minutes with 30 second time points in a spectrofluorimeter. IC50 values are calculated by non-linear regression from the percentage of inhibition of complement factor D activity as a function of test compound concentration.

Sequence of Complement factor D (P00746 whole entry): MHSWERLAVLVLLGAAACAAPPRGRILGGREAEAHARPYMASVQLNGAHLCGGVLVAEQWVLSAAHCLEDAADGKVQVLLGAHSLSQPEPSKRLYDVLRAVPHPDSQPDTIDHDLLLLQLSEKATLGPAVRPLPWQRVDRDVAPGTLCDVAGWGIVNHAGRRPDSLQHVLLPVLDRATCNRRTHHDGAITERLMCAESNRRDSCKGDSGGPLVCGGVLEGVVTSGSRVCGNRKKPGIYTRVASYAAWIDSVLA

Row | Compound | IC50 [µM]
1 | CC(=O)c1cn(CC(=O)N2C[C@H](F)C[C@H]2C(=O)Nc2cccc(Cl)n2)c2ccc(-c3ccnnc3)cc12 | < 1
2 | CC(=O)c1cn(CC(=O)N2C[C@H](F)C[C@H]2C(=O)Nc2cccc(Br)n2)c2ccc(-c3ccc(C)nn3)cc12 | < 1
3 | NC(=O)c1nn(CC(=O)N2C[C@H](F)C[C@H]2C(=O)Nc2cccc(Cl)n2)c2ccc(-c3ccnnc3)cc12 | < 1
